# Like-named read-outs stand apart in the source and are kept apart here.
# Target: T1, mouse TMEM16A mutant Y598A (Mus musculus, UniProt Q8BHY3, Y598A)
# T1 construct: expressed in transfected cells; host or cells: HEK293T
# T1 sequence (Q8BHY3 1-960 Y598A): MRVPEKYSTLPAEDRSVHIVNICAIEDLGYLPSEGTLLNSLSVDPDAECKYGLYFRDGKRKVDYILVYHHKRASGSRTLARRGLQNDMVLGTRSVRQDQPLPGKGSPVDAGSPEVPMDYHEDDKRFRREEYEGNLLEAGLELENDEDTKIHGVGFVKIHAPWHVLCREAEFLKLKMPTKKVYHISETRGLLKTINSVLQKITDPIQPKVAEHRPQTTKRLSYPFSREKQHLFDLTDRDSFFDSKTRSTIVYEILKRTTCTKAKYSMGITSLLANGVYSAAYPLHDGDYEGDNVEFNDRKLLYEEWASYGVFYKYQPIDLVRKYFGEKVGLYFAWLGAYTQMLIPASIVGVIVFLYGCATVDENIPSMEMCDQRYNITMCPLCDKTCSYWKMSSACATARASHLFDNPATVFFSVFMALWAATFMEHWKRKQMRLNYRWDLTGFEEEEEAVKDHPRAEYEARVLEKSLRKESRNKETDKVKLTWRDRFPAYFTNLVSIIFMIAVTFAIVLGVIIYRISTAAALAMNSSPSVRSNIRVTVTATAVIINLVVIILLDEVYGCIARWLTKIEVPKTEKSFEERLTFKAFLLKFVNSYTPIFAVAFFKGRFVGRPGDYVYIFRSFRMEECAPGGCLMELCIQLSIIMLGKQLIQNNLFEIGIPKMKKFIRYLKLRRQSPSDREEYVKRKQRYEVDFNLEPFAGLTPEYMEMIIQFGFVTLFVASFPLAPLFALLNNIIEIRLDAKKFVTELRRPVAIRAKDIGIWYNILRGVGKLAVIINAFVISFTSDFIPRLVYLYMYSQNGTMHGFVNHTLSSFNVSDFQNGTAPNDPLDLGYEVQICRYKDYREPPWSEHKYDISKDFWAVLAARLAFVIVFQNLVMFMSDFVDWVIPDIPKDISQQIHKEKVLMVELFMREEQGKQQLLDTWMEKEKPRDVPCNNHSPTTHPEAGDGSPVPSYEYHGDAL
# Test: Inside-out patch recording of 1PBC block, mutant Y598A
# Assay type: cell-based
# Conditions: for remaining activity at 3 µM: 1PBC conc 3; for remaining activity at 3 µM / remaining activity at 10 µM / remaining activity at 30 µM: read-out: relative current in 1PBC (avr); for remaining activity at 10 µM: 1PBC conc 10; for remaining activity at 30 µM: 1PBC conc 30
# Experimental: HEK293T cells (ATCC CRL-1573) were maintained in Dulbecco’s modified Eagle’s medium (DMEM; Sigma-Aldrich) supplemented with 10 U ml^−1 penicillin, 0.1 mg ml^−1 streptomycin (Sigma-Aldrich), 2 mM L-glutamine (Sigma-Aldrich), and 10% FBS (Sigma-Aldrich) in a humidified atmosphere containing 5% CO2 at 37 °C. HEK293S GnTI^− cells (ATCC CRL-3022) were maintained in HyClone HyCell TransFx-H medium (GE Healthcare) supplemented with 10 U ml^−1 penicillin, 0.1 mg ml^−1 streptomycin, 4 mM L-glutamine, 0.15% poloxamer 188 (Sigma-Aldrich), and 1% FBS in an atmosphere containing 5% CO2 at 185 rpm at 37 °C. The ac splice variant of mouse TMEM16A (UniProt ID: Q8BHY3), mouse TMEM16B (UniProt ID: Q8CFW1), or mouse TMEM16F (UniProt ID: Q6P9J9) bearing a 3C cleavage site, a Venus YFP, a Myc tag, and a Streptavidin-binding peptide (SBP) downstream of the open reading frame in a modified pcDNA3.1 vector (Invitrogen) were used as described previously[21],[31]. Mutations were introduced using a modified QuikChange method[58] and were verified by sequencing.
# HEK293T cells were transfected with 3–4 μg DNA per 6 cm Petri dish using the calcium phosphate co-precipitation method and were used within 24–96 h after transfection. Recordings were performed on inside-out patches excised from HEK293T cells expressing the construct of interest. Patch pipettes were pulled from borosilicate glass capillaries (O.D. 1.5 mm, I.D. 0.86 mm, Sutter Instrument) and were fire-polished with a microforge (Narishige) before use. Pipette resistance was typically 3–8 MΩ when filled with the recording solutions detailed below. Seal resistance was typically 4 GΩ or higher. Voltage-clamp recordings were made using Axopatch 200B, Digidata 1550, and Clampex 10.7 (Molecular Devices). Analog signals were filtered with the in-built 4-pole Bessel filter at 10 kHz and were digitized at 20 kHz. Solution exchange was achieved using a gravity-fed system through a theta glass pipette mounted on an ultra-fast piezo-driven stepper (Siskiyou). […] All recordings were performed at 20 °C.
# A symmetrical ionic condition was used throughout. Stock solution with Ca^2+-EGTA contained 150 mM NaCl, 5.99 mM Ca(OH)2, 5 mM EGTA, and 10 mM HEPES at pH 7.40. Stock solution with EGTA contained 150 mM NaCl, 5 mM EGTA, and 10 mM HEPES at pH 7.40. Free Ca^2+ concentrations were adjusted by mixing the stock solutions at the required ratios calculated using the WEBMAXC program (http://web.stanford.edu/~cpatton/webmaxcS.htm). Patch pipettes were filled with the stock solution with Ca^2+-EGTA, which has a free Ca^2+ concentration of 1 mM. 1PBC (ChemBridge) stock was reconstituted in anhydrous DMSO (Sigma-Aldrich) at 100 mM and stored at −20 °C. Working solutions with 1PBC were prepared by serial dilution. Unless otherwise stated, experiments were performed at a saturating Ca^2+ concentration as shown in Supplementary Table 1 and the primary data were corrected for current rundown as described previously[21],[25].
# Concentration-response relations, obtained from the ratio of the I-V plots before and after the application of the blocker, were fitted to the Hill equation,1 I/Imax=1/1+IC50/[blocker]^h where I/Imax is the normalized current responses, IC50 defines the concentration at which inhibition is at its half-maximum, and h is the Hill coefficient.
smiles,measurement,setting,value
N#Cc1c(C(F)(F)F)cc(O)n2c1nc1ccccc12 [1PBC],IC50,"0 mV, 2 µM Ca2+",5 µM
same,remaining activity at 3 µM,0 mV,62.2%
same,remaining activity at 10 µM,0 mV,32.7%
same,remaining activity at 30 µM,0 mV,16.1%
same,normalised current (avr),"1PBC 3, V 0 mV",-0.0008127
same,normalised current (avr),"1PBC 3, V 20 mV",0.0806
same,normalised current (avr),"1PBC 3, V 40 mV",0.1479
same,normalised current (avr),"1PBC 3, V 60 mV",0.2094
same,normalised current (avr),"1PBC 3, V 80 mV",0.2692
same,normalised current (avr),"1PBC 3, V 100 mV",0.3374
same,normalised current (avr),"1PBC 3, V 120 mV",0.4035
same,normalised current (avr),"1PBC 3, V 140 mV",0.5334
same,normalised current (avr),"1PBC 3, V -20 mV",-0.0953
same,normalised current (avr),"1PBC 3, V -40 mV",-0.2038
same,normalised current (avr),"1PBC 3, V -60 mV",-0.3243
same,normalised current (avr),"1PBC 3, V -80 mV",-0.4624
same,normalised current (avr),"1PBC 3, V -100 mV",-0.5959
same,normalised current (avr),"1PBC 3, V -120 mV",-0.7447
same,normalised current (avr),"1PBC 3, V -140 mV",-0.8933
same,normalised current (avr),"1PBC 10, V 0 mV",-0.0004268
same,normalised current (avr),"1PBC 10, V 20 mV",0.04176
same,normalised current (avr),"1PBC 10, V 40 mV",0.07281
same,normalised current (avr),"1PBC 10, V 60 mV",0.101
same,normalised current (avr),"1PBC 10, V 80 mV",0.1339
same,normalised current (avr),"1PBC 10, V 100 mV",0.1691
same,normalised current (avr),"1PBC 10, V 120 mV",0.2139
same,normalised current (avr),"1PBC 10, V 140 mV",0.279
same,normalised current (avr),"1PBC 10, V -20 mV",-0.05063
same,normalised current (avr),"1PBC 10, V -40 mV",-0.1149
same,normalised current (avr),"1PBC 10, V -60 mV",-0.2039
same,normalised current (avr),"1PBC 10, V -80 mV",-0.3102
same,normalised current (avr),"1PBC 10, V -100 mV",-0.4329
same,normalised current (avr),"1PBC 10, V -120 mV",-0.5455
same,normalised current (avr),"1PBC 10, V -140 mV",-0.6513
same,normalised current (avr),"1PBC 30, V 0 mV",-0.0002099
same,normalised current (avr),"1PBC 30, V 20 mV",0.02319
same,normalised current (avr),"1PBC 30, V 40 mV",0.04085
same,normalised current (avr),"1PBC 30, V 60 mV",0.05628
same,normalised current (avr),"1PBC 30, V 80 mV",0.08124
same,normalised current (avr),"1PBC 30, V 100 mV",0.1064
same,normalised current (avr),"1PBC 30, V 120 mV",0.1384
same,normalised current (avr),"1PBC 30, V 140 mV",0.17
same,normalised current (avr),"1PBC 30, V -20 mV",-0.02219
same,normalised current (avr),"1PBC 30, V -40 mV",-0.05555
same,normalised current (avr),"1PBC 30, V -60 mV",-0.09343
same,normalised current (avr),"1PBC 30, V -80 mV",-0.1537
same,normalised current (avr),"1PBC 30, V -100 mV",-0.2141
same,normalised current (avr),"1PBC 30, V -120 mV",-0.2888
same,normalised current (avr),"1PBC 30, V -140 mV",-0.3717
same,IC50,"20 mV, 2 µM Ca2+",4.35 µM
same,remaining activity at 3 µM,20 mV,57.7%
same,remaining activity at 10 µM,20 mV,29.9%
same,remaining activity at 30 µM,20 mV,16.6%
same,IC50,"40 mV, 2 µM Ca2+",3.57 µM
same,remaining activity at 3 µM,40 mV,52.9%
same,remaining activity at 10 µM,40 mV,26.1%
same,remaining activity at 30 µM,40 mV,14.6%
same,IC50,"60 mV, 2 µM Ca2+",3.16 µM
same,remaining activity at 3 µM,60 mV,49.9%
same,remaining activity at 10 µM,60 mV,24.1%
same,remaining activity at 30 µM,60 mV,13.4%
same,log-fold IC50 (change of mutant vs WT),80 mV,0.1976
same,IC50,"80 mV, 2 µM Ca2+",3.04 µM
same,remaining activity at 3 µM,80 mV,48.1%
same,remaining activity at 10 µM,80 mV,23.9%
same,remaining activity at 30 µM,80 mV,14.5%
same,IC50,"100 mV, 2 µM Ca2+",3.06 µM
same,remaining activity at 3 µM,100 mV,48%
same,remaining activity at 10 µM,100 mV,24.1%
same,remaining activity at 30 µM,100 mV,15.1%
same,IC50,"120 mV, 2 µM Ca2+",3.13 µM
same,remaining activity at 3 µM,120 mV,47.7%
same,remaining activity at 10 µM,120 mV,25.3%
same,remaining activity at 30 µM,120 mV,16.4%
same,IC50,"140 mV, 2 µM Ca2+",3.81 µM
same,remaining activity at 3 µM,140 mV,53.3%
same,remaining activity at 10 µM,140 mV,27.9%
same,remaining activity at 30 µM,140 mV,17%
same,IC50,"-20 mV, 2 µM Ca2+",5.71 µM
same,remaining activity at 3 µM,-20 mV,66.7%
same,remaining activity at 10 µM,-20 mV,35.5%
same,remaining activity at 30 µM,-20 mV,15.5%
same,IC50,"-40 mV, 2 µM Ca2+",7.02 µM
same,remaining activity at 3 µM,-40 mV,71.1%
same,remaining activity at 10 µM,-40 mV,40.1%
same,remaining activity at 30 µM,-40 mV,19.4%
same,IC50,"-60 mV, 2 µM Ca2+",8.86 µM
same,remaining activity at 3 µM,-60 mV,75.3%
same,remaining activity at 10 µM,-60 mV,47.3%
same,remaining activity at 30 µM,-60 mV,21.7%
same,IC50,"-80 mV, 2 µM Ca2+",11.2 µM
same,remaining activity at 3 µM,-80 mV,79.4%
same,remaining activity at 10 µM,-80 mV,53.2%
same,remaining activity at 30 µM,-80 mV,26.4%
same,IC50,"-100 mV, 2 µM Ca2+",13.5 µM
same,remaining activity at 3 µM,-100 mV,81.5%
same,remaining activity at 10 µM,-100 mV,59.2%
same,remaining activity at 30 µM,-100 mV,29.3%
same,IC50,"-120 mV, 2 µM Ca2+",15.9 µM
same,remaining activity at 3 µM,-120 mV,85.1%
same,remaining activity at 10 µM,-120 mV,62.4%
same,remaining activity at 30 µM,-120 mV,33%
same,IC50,"-140 mV, 2 µM Ca2+",18 µM
same,remaining activity at 3 µM,-140 mV,87.9%
same,remaining activity at 10 µM,-140 mV,64.1%
same,remaining activity at 30 µM,-140 mV,36.6%
same,IC50,"Y598A, V 0 mV",5 µM
same,IC50,"Y598A, V 20 mV",4.35 µM
same,IC50,"Y598A, V 40 mV",3.57 µM
same,IC50,"Y598A, V 60 mV",3.16 µM
same,IC50,"Y598A, V 80 mV",3.04 µM
same,IC50,"Y598A, V 100 mV",3.06 µM
same,IC50,"Y598A, V 120 mV",3.13 µM
same,IC50,"Y598A, V 140 mV",3.81 µM
same,IC50,"Y598A, V -20 mV",5.71 µM
same,IC50,"Y598A, V -40 mV",7.02 µM
same,IC50,"Y598A, V -60 mV",8.86 µM
same,IC50,"Y598A, V -80 mV",11.2 µM
same,IC50,"Y598A, V -100 mV",13.5 µM
same,IC50,"Y598A, V -120 mV",15.9 µM
same,IC50,"Y598A, V -140 mV",18 µM

# Reference: article PMC9120017, “Inhibition mechanism of the chloride channel TMEM16A by the pore blocker 1PBC” (Nature Communications, 2022)
